Our source for the IC50 values is ChEMBL document CHEMBL1158771, “Glaciapyrroles A, B, and C, pyrrolosesquiterpenes from a Streptomyces sp. isolated from an Alaskan marine sediment” (J Nat Prod, 2005).

In one assay the test system is B16-F10. The assay is described as follows: Cytotoxicity against mouse B16F10 cells assessed as reduction of resazurin after 48 hrs by fluorimetry. Format: functional, cell-based. Particulars: B16-F10, 48 h.
Another assay deals with HT-29. As to the kind of experiment: Cytotoxicity against human HT-29 cells assessed as reduction of resazurin after 48 hrs by fluorimetry. In kind it is functional, cell-based. Particulars: HT-29, 48 h.

As to `CC(=C/C(=O)c1ccc[nH]1)/C=C/[C@H](O)[C@@]1(C)CC[C@H](C(C)(C)O)O1` [GLYCIAPYRROLE A], the IC50 with B16-F10 and in the assay on HT-29 was 180 µM each time.
